The source of these data is ChEMBL document CHEMBL1150132, “Five new discodermolide analogues from the marine sponge Discodermia species” (J Nat Prod, 2002).

The test system of one experiment is P388. Put plainly: Cytotoxicity against mouse P388 cells after 48 hrs by MTT assay. The experiment is classed as functional, cell-based. The settings on record: P388, 48 h. A general note: Formazan colour is commonly taken as a measure of viable cells.
The test system of a further experiment is A549. Description: Cytotoxicity against human A549 cells. In kind it is functional, cell-based.

What is called IC50 is the concentration that inhibits the measured activity by half. Low values mean higher potency, high ones lower potency. As for `C=C/C=C\[C@H](C)[C@H](OC(N)=O)[C@@H](C)[C@H](O)[C@@H](C)C/C(C)=C\[C@H](C)[C@@H](O)[C@@H](C)/C=C\[C@@H](O)C[C@H](O)[C@H](C)[C@H](O)[C@@H](C)C(=O)OC`, the IC50 in the experiment on P388 came out at 65.8 nM; in the experiment on A549, 74 nM. On the same counts, the results for `C=C/C=C\[C@H](C)[C@H](OC(N)=O)[C@@H](C)[C@H](O)[C@@H](C)C/C(C)=C\[C@H](C)[C@@H](O)[C@@H](C)/C=C\[C@@H](O)C[C@@H]1OC(=O)C[C@@H](O)[C@H]1C` are 172 nM and 120 nM. For `C=C/C=C\[C@H](C)[C@H](OC(N)=O)[C@@H](C)[C@H](O)[C@@H](C)C/C(C)=C\[C@H](C)[C@@H](O)[C@@H](C)/C=C\[C@@H](O)C[C@@H]1OC(=O)[C@@H](C)[C@@H](O)[C@H]1C`, in that order: 134 nM and 67 nM. For `C=C/C=C\[C@H](C)[C@H](O)[C@@H](C)[C@H](O)[C@@H](C)C/C(C)=C\[C@H](C)[C@@H](O)[C@@H](C)/C=C\[C@@H](O)C[C@@H]1OC(=O)[C@H](C)[C@@H](O)[C@H]1C`, in that order: 128 nM and 74 nM. As for `C=C/C=C\C(C)C(OC(N)=O)C(C)C(O)C(C)/C=C(\C)C1C(C)C(O)C(C)C1/C=C/C[C@@H]1OC(=O)[C@H](C)[C@@H](O)[C@@H]1C` (stereo partly specified), the 50% inhibitory concentration (IC50) in the experiment with P388 worked out at 5040 nM; with A549, 4490 nM. The molecule `C=C/C=C\[C@H](C)[C@H](OC(N)=O)[C@@H](C)[C@H](O)[C@@H](C)C/C(C)=C\[C@H](C)[C@@H](O)[C@@H](C)/C=C\[C@@H](O)C[C@@H]1OC(=O)[C@H](C)[C@@H](O)[C@H]1C` [DISERMOLIDE] yielded an IC50 with A549 of 13.5 nM.
